Experimental data as given in patent EP0560232A1, “Novel 7-aminolabdanes, a process for their preparation and their use as pharmaceutical agents” (HOECHST AKTIENGESELLSCHAFT, priority 1992, dated 1993).

How the values were obtained:
Hypovolemic rats = assay: Blood pressure lowering activity in hypovolemic rats; type: in vivo; conditions: for Blood pressure (mm Hg) Initial: before drug
Protocol: Hypovolemic rats were used for this activity. Hypovolemic rats were prepared by the administration of 100 mg/kg furosemide intra peritoneally 1 hour prior to the actual experiment. After administering furosemide the rats were anesthesised with 1.5 g/kg urethane given i.p. The right carotid artery was cannulated and blood pressure was mentioned on a physiological recorder by connecting the carotial cannula to a pressure transducer. The left jugular vein was cannulated for i.v. administration of test substances - intra duodenal (i.d.) administration is made by exposing a portion of the duodenum through a small incision made in the abdomen below the sternum. Blood pressure was monitored for 10 minutes in case of i.v. administration and for 90 to 120 minutes when the drug was administered by the i.d. route.

Isolated Rat Portal Vein = assay: Potassium channel opening activity, isolated rat portal vein model (KCl-induced contractions); conditions: Dose 10^-6 Mol, 5 min incubation, n=5, mean + SEM, vehicle D.W. or DMSO; for Percent Inhibition Activity KCl20 mM: reduction of KCl 20 mM induced contraction; for Percent Inhibition Activity KCl80 mM: reduction of KCl 80 mM induced contraction
Protocol: Potassium channel opening activity: - Isolated Rat Portal Vein model.
Normal male albino rats of the Charles Foster strain of weight range 200 to 250 g were used.
After sacrificing the animal, abdomen was opened and portal vein was isolated and mounted in an organ bath containing Kerb's solution. The bath was maintained at 37°C and aerated with 95 vol.% oxygen and 5 vol.% carbon dioxide gas mixture. The tissue was kept under 0.5 to 1 g tension and allowed to stabilise for about 30 minutes. KCl₂₀ and KCl₈₀ mM induced cumulative concentrations were measured-through Hugo Sachs Force displacement transducer (K-30) and recorded on 4 channel digital recorder. After taking 2 control responses, the tissue was incubated with test substance for 5 minutes and dose response was repeated. The percent reduction in KCl₂₀ and KCl₈₀ mM induced contractions were calculated from the control values. Standard potassium channel opener selectively blocks the KCl₂₀ induced contractions without affecting the KCl₈₀ mM induced responses. […] The test compounds were administered in a volume of 0.2 ml per concentration. All results are expressed as mean + SEM.

## C=C[C@@]1(C)CC(=O)[C@@]2(O)[C@](C)(O1)[C@@H](N)C=C1C(C)(C)CC[C@H](O)[C@@]12C [(β)NH2, 7β-Amino-1α,9α-dihydroxy-8,13-epoxy-labd-5,14-dien-11-one]
Hypovolemic rats; 10 mg/kg i.v.
  Blood pressure (mm Hg) Post drug: 38±2 mm Hg
  Blood pressure duration: >70 min
Hypovolemic rats; group dosed 10 mg/kg i.v.
  Blood pressure (mm Hg) Initial: 90±10 mm Hg

## C=C[C@@]1(C)CC(=O)[C@H]2[C@](C)(O1)[C@H](N)C=C1C(C)(C)CCC[C@@]12C [(α)NH2, 7α-Amino-8,13-epoxy-labd-5,14-dien-11-one]
Hypovolemic rats; 10 mg/kg i.v.
  Blood pressure % change: -20.5±3%
  Blood pressure (mm Hg) Post drug: 68±4 mm Hg
  Blood pressure duration: 5 min
Hypovolemic rats; group dosed 10 mg/kg i.v.
  Blood pressure (mm Hg) Initial: 87±9 mm Hg
Isolated Rat Portal Vein
  Percent Inhibition Activity KCl20 mM: 57+9%
  Percent Inhibition Activity KCl80 mM: 34+9%

## C=C[C@@]1(C)CC(=O)[C@H]2[C@](C)(O1)[C@H](NC(C)=O)C=C1C(C)(C)CCC[C@@]12C [(α)NHCOCH3, 7α-Acetylamino-8,13-epoxy-labd-5,14-dien-11-one]
Hypovolemic rats; 30 mg/kg i.d.
  Blood pressure % change: -15.4±3%
  Blood pressure (mm Hg) Post drug: 80±4 mm Hg
  Blood pressure duration: 30 min
Hypovolemic rats; group dosed 30 mg/kg i.d.
  Blood pressure (mm Hg) Initial: 94±3 mm Hg
Isolated Rat Portal Vein
  Percent Inhibition Activity KCl20 mM: 34+10%
  Percent Inhibition Activity KCl80 mM: 5+2%
